# Test results taken from paper PMC8286831, “Identifying SARS-CoV-2 antiviral compounds by screening for small molecule inhibitors of nsp13 helicase” (Biochemical Journal, 2021).
# Entries after “also recorded” stand apart in the source; their conditions may differ. Counter-ions that a name gives are not always drawn. Like-named read-outs stand apart in the source and are kept apart here.
# Key:
# [1] = target: SARS-CoV-2 nsp13 helicase (Severe acute respiratory syndrome coronavirus 2, UniProt P0DTD1); test: biochemical; type: biochemical
# [2] = target: T1, SARS-CoV-2 RdRp holoenzyme (Severe acute respiratory syndrome coronavirus 2, UniProt P0DTD1); test: FRET-based RdRp strand displacement assay; type: biochemical
# T1 construct: (Sf nsp12-3F/7L8 preincubated with Sf 7H8 at a 1:3 ratio); 3F (3xFlag) (C); made in house; host or cells: 'Sf', read as Spodoptera frugiperda insect cells (my inference from the prefix); details are in Bertolin et al
# [3] = read-out: IC50 + 0.02% Tween-20
# [4] = RNA (RdRp substrate), 0.3 mM each NTP, 0.02% Tween-20 in RdRp assay buffer
# [5] = RNA (nsp13 substrate), 0.3 mM ATP, 0.02% Tween-20 in RdRp assay buffer
# [6] = IC50 0.02% Tween-20 + (presence)
# [7] = IC50 0.02% Tween-20 − (absence)
# [8] = RNA (nsp13 substrate), 0.3 mM ATP, 0.02% Tween-20 in RdRp assay buffer, read-out: IC50 nsp13
# [9] = RNA (RdRp substrate), 0.3 mM each NTP, 0.02% Tween-20 in RdRp assay buffer, read-out: IC50 RdRp
smiles,measurement,setting,value
NC(Cc1cc(O)c(O)cc1O)C(=O)O (racemic) [6-Hydroxy-DL-DOPA],IC50 + 0.02% Tween-20,[1],Quenching
same,IC50 No detergent,[1],Quenching
CN(C)CC[C@H](CSc1ccccc1)Nc1ccc(S(=O)(=O)NC(=O)c2ccc(N3CCC(C)(C)CC3)cc2)cc1[N+](=O)[O-] [A-385358],IC50 nsp13,[1],No inhibition
same,IC50,[1]; [3],> 250 µM
same,IC50,[1]; read-out: IC50 No detergent,3.3 µM
same,IC50 RdRp,[2]; [4],did not inhibit RdRp; also recorded: No inhibition
CN(C)CC[C@H](CSc1ccccc1)Nc1ccc(S(=O)(=O)NC(=O)c2ccc(N3CCN(Cc4ccccc4-c4ccc(Cl)cc4)CC3)cc2)cc1[N+](=O)[O-] [ABT-737],IC50,[1]; IC50 + 0.02% Tween-20,> 250 µM
same,IC50,[1]; IC50 No detergent,1.2 µM
same,IC50 nsp13,[1]; [5],No inhibition
same,IC50 RdRp,[2]; [4],No inhibition
CCN(CC)C(=O)c1ccc(C2=CC3(CCNCC3)Oc3cccc(O)c32)cc1 [ADL5859],IC50 + 0.02% Tween-20,[1],No inhibition
same,IC50,[1]; IC50 No detergent,> 250 µM
Nc1ncnc2c1ncn2[C@@H]1O[C@H](COP(=O)(O)OP(=O)(O)OP(=O)(O)O)[C@@H](O)[C@H]1O [ATP],Km,"[1]; 2 nM FH-nsp13, 200 nM DNA substrate, read-out: Km for ATP with the DNA substrate",110 µM
same,Km,"[1]; 3 nM FH-nsp13, 200 nM RNA substrate, read-out: Km for ATP with the RNA substrate",130 µM
COc1ccc(-c2ccc3cc(C(=O)O)ccc3c2)cc1C12CC3CC(CC(C3)C1)C2 [Adapalene],IC50,[1]; [6],5.5 µM
same,IC50,[1]; [7],1.3 µM
same,IC50,[1]; IC50 + 0.02% Tween-20,9.9 µM
same,IC50,[1]; IC50 No detergent,3.7 µM
same,IC50,[1]; IC50 nsp13,11 µM
same,IC50,[2],20 µM
Cc1cc(O[C@@H](CCC(F)(F)F)c2ccc(C(=O)NCCC(=O)O)cc2)cc(C)c1-c1ccc(C(C)(C)C)cc1 [Adomeglivant],IC50,[1]; IC50 + 0.02% Tween-20,103 µM
same,IC50,[1]; IC50 No detergent,5.3 µM
same,IC50,[1]; [8],> 100 µM
same,IC50,[2],39 µM
CC(C)c1cc(C(C)C)c(CC(=O)NS(=O)(=O)Oc2c(C(C)C)cccc2C(C)C)c(C(C)C)c1 [Avasimibe],IC50,[1]; [6],17 µM
same,IC50,[1]; [7],1.3 µM
same,IC50,[1]; IC50 + 0.02% Tween-20,13 µM
same,IC50,[1]; IC50 No detergent,4 µM
same,IC50,[2],18 µM
same,IC50 RdRp,[2]; [4],also inhibited RdRp in a similar fashion
O=C1/C(=C/c2ccc(O)c(Br)c2)CN(Cc2ccccc2)C/C1=C\c1ccc(O)c(Br)c1 [CARM1-IN-1],IC50,[1]; [8],> 100 µM
same,IC50,[1]; [3],126 µM
same,IC50,[1]; read-out: IC50 No detergent,4.2 µM
same,IC50,[2]; [9],> 100 µM
CO/N=C(\C(=O)N[C@@H]1C(=O)N2C(C(=O)O)=C(CSC(=O)c3ccco3)CS[C@H]12)c1csc(N)n1 [Ceftiofur HCl],IC50,[1]; IC50 + 0.02% Tween-20,> 250 µM
same,IC50,[1]; IC50 No detergent,> 250 µM
CC(C)(C[C@H]1CN(S(=O)(=O)c2cccc(C(F)(F)F)c2)c2cc(-c3cc(F)cc(OC(F)F)c3)ccc2O1)C(=O)O [Cintirorgon],IC50,[1]; [6],41 µM
same,IC50,[1]; [7],2.1 µM
same,IC50,[1]; IC50 + 0.02% Tween-20,38 µM
same,IC50,[1]; IC50 No detergent,2.3 µM
same,IC50,[1]; [8],97 µM
same,IC50,[2]; [9],36 µM
COc1cccc2c1C(=O)c1c(O)c3c(c(O)c1C2=O)C[C@@](O)(C(=O)CO)C[C@@H]3O[C@H]1C[C@H](N)[C@H](O)[C@H](C)O1 [Doxorubicin],IC50 + 0.02% Tween-20,[1],Artifact
same,IC50 No detergent,[1],Artifact
CC/C=C\C/C=C\C/C=C\C/C=C\C/C=C\CCCC(=O)O [Eicosapentaenoic acid],IC50,[1]; IC50 + 0.02% Tween-20,69 µM
same,IC50,[1]; IC50 No detergent,14 µM
same,IC50,[1]; [8],81 µM
same,IC50,[2]; [9],29 µM
CCCCCCCC/C=C/CCCCCCCC(=O)O [Elaidic acid],IC50,[1]; IC50 + 0.02% Tween-20,> 250 µM
same,IC50,[1]; IC50 No detergent,8.6 µM
same,IC50 nsp13,[1]; [5],No inhibition
same,IC50 RdRp,[2]; [4],No inhibition
COc1cc2c(cc1Cc1cccc(Cl)c1F)c(=O)c(C(=O)O)cn2[C@H](CO)C(C)C [Elvitegravir],IC50,[1]; IC50 + 0.02% Tween-20,> 250 µM
same,IC50,[1]; IC50 No detergent,22 µM
same,nsp13 inhibition and detergent sensitivity,[1]; presence or absence of non-ionic detergent,clear inhibition only in the absence of detergent
COC(=O)[C@@H]1CC2=CC(=O)CC[C@]2(C)[C@@]23O[C@@H]2C[C@@]2(C)[C@@H](CC[C@@]24CCC(=O)O4)[C@H]13 [Eplerenone],IC50 + 0.02% Tween-20,[1],No inhibition
same,IC50,[1]; IC50 No detergent,> 250 µM
CC1=C(/C=C/C(C)=C/C=C/C(C)=C/C(=O)Nc2ccc(O)cc2)C(C)(C)CCC1 [Fenretinide],IC50,[1]; [6],> 250 µM
same,IC50,[1]; [7],7.3 µM
same,IC50,[1]; IC50 + 0.02% Tween-20,> 250 µM
same,IC50,[1]; IC50 No detergent,9.1 µM
same,IC50 nsp13,[1]; [5],No inhibition
same,IC50 RdRp,[2]; [4],No inhibition
CC1(C)O[C@@H]2C[C@H]3[C@@H]4C[C@H](F)C5=CC(=O)C=C[C@]5(C)[C@@]4(F)[C@@H](O)C[C@]3(C)[C@]2(C(=O)CO)O1 [Fluocinolone Acetonide],IC50 + 0.02% Tween-20,[1],No inhibition
same,IC50,[1]; IC50 No detergent,> 250 µM
